Data published in patent US20070270428A1, “Use of Cyclooxygenase-2 Inhibitors for the Treatment of Depressive Disorders” (priority 2003, published 2007).
Like-named read-outs stand apart in the source and are kept apart here.

How the values were obtained:
[1] = test system: male Sprague-Dawley rats; experiment: Chronic Inescapable Shock in Rats (escape test); assay type: in vivo, rat; settings: stressed rats
Method: The Chronic Inescapable Shock in Rats model, developed from the learned Helplessness paradigm, was used to investigate the acquisition of shock-induced escape deficits in rats in the absence and presence of SSRI±COX-2 inhibitors. The test was performed over a period of seven days as an adaptation of the methodology used previously by Gambarana, C., […]. & De Montis, M. G. (1995). Experiments were carried out on male Sprague-Dawley rats (Charles River, Como, Italy). Animals were kept in a controlled environment with a constant temperature of 22° C. and a 12 hour light/12 hour inverted dark cycle, with free access to food and water. The procedures used in this study for all animals were in strict accordance with the European legislation on the use and care of laboratory animals (CEE N° 86/609) and experiments were performed under red light. The experimental procedure consists of a pre-test session (exposure to an unavoidable stress of minimum intensity and duration required to induce a reliable behavioural modification) followed 24 hours later by an escape test (for the assessment of the induced behavioural modification). […]

[2] = biological target: T1, human COX-1 (Homo sapiens, UniProt P23219); experiment: Inhibition of human COX-1 in stably transfected COS cells (PGE2 release); assay type: cell-based; settings: COS cells stably transfected with human COX-1
T1 construct: expressed in transfected cells; host or cells: COS cells (stably transfected)
Method: (§1) 24 Hours prior to experiment, COS cells were transferred from the 175 cm^2 flasks in which they were grown, onto 24-well cell culture plates using the following procedure. The incubation medium
(Dulbecco's modified eagles medium (DMEM) supplemented with heat-inactivated foetal calf serum (10% v/v), penicillin (100 lU/ml), streptomycin (100 μg/ml) and geneticin (600 μg/ml)) was removed from a flask of confluent cells (1 flask at confluency contains approximately 1×10^7 cells). 10 ml of phosphate buffered saline (PBS) was added to the flask to wash the cells. Having discarded the PBS, cells were then rinsed in 10 ml trypsin for 20 seconds, after which the trypsin was removed and the flask placed in an incubator (37°) for 1-2 minutes until cells became detached from the flask. The flask was then removed from the incubator and cells resuspended in 10 ml of fresh incubation medium. The contents of the flask was transferred to a 250 ml sterile container and the volume of incubation medium subsequently made up to 100 ml. […] The plates were then placed in an incubator (37° C., 95% air/5% CO2) overnight. If more than 1 flask of cells were required, the cells from the individual flasks were combined before being dispensed into the 24-well plates.
Following the overnight incubation, the incubation medium was completely removed from the 24-well cell culture plates and replaced with 250 μl fresh DMEM (37° C.). The test compounds were made up to 250× the required test concentration in DMSO and were added to the wells in a volume of 1 μl. Plates were then mixed gently by swirling and then placed in an incubator for 1 hour (37° C., 95% air/5% CO2). Following the incubation period, 10 μl of arachidonic acid (750 μM) was added to each well to give a final arachidonic acid concentration of 30 μM. Plates were then incubated for a further 15 minutes, after which the incubation medium was removed from each well of the plates and stored at −20° C., prior to determination of prostaglandin E2 (PGE2) levels using enzyme immunoassay. The inhibitory potency of the test compound was expressed as an IC50 value, which is defined as the concentration of the compound required to inhibit the PGE2 release from the cells by 50%. The selectivity ratio of inhibition of COX-1 versus COX-2 was calculated by comparing respective IC50 values.

[3] = biological target: T2, microsomal h-COX2 (Homo sapiens, UniProt P35354); experiment: Microsomal assay, COX-2 (microsomal preparation from baculovirus infected SF9 cells); assay type: biochemical
T2 construct: made in house; host or cells: baculovirus infected SF9 cells (microsomal preparation)
T2 sequence (P35354 18-604): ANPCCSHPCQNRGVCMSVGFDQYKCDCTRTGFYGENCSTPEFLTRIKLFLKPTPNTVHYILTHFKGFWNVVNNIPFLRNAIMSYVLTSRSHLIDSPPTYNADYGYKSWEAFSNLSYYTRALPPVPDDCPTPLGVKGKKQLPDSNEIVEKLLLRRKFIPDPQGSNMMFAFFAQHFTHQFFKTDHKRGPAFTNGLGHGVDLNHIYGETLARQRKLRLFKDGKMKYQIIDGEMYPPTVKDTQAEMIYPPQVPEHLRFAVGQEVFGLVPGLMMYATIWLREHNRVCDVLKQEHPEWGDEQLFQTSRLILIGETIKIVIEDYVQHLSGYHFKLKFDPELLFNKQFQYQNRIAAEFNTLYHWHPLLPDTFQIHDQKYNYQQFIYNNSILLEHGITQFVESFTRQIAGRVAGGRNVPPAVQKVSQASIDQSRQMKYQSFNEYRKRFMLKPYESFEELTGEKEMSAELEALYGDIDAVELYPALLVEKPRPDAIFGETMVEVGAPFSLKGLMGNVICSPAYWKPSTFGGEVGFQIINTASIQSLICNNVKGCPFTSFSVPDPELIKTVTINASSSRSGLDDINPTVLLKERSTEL
Method: Inhibitory activity against microsomal h-COX2 was assessed against a microsomal preparation from baculovirus infected SF9 cells. An aliquot of microsomal preparation was thawed slowly on ice and a 1/40,000 dilution prepared from it into the assay buffer (sterile water, degassed with argon containing 100 mM HEPES (pH 7.4), 10 mM EDTA (pH7.4), 1 mM phenol, 1 mM reduced glutathione, 20 mg/ml gelatin and 0.001 mM Hematin). Once diluted the enzyme solution was then sonicated for 5 seconds (Branson sonicator, setting 4, 1 cm tip) to ensure a homogeneous suspension. […] Plates were then mixed and incubated at room temperature for 1 hour. Following the incubation period, 40 μl of 0.5 μM arachidonic acid was added to each well to give a final concentration of 0.1 μM. Plates were then mixed and incubated for exactly 10 minutes (room temperature) prior to addition of 25 μl 1M HCl (hydrochloric acid) to each well to stop the reaction. 25 μl of 1M NaOH (sodium hydroxide) was then added to each well to neutralise the solution prior to determination of PGE2 levels by enzyme immunoassay (EIA).

[4] = biological target: T3, human COX-2 (Homo sapiens, UniProt P35354); experiment: Inhibition of human COX-2 in stably transfected COS cells (PGE2 release); assay type: cell-based; settings: COS cells stably transfected with human COX-2
T3 construct: expressed in transfected cells; host or cells: COS cells (stably transfected)
T3 sequence (P35354 18-604): T2 sequence (P35354 18-604)
Method: as §1
(Dulbecco's modified eagles medium (DMEM) supplemented with heat-inactivated foetal calf serum (10% v/v), penicillin (100 lU/ml), streptomycin (100 μg/ml) and geneticin (600 μg/ml)) was removed from a flask of confluent cells (1 flask at confluency contains approximately 1×10^7 cells). 10 ml of phosphate buffered saline (PBS) was added to the flask to wash the cells. Having discarded the PBS, cells were then rinsed in 10 ml trypsin for 20 seconds, after which the trypsin was removed and the flask placed in an incubator (37°) for 1-2 minutes until cells became detached from the flask. The flask was then removed from the incubator and cells resuspended in 10 ml of fresh incubation medium. The contents of the flask was transferred to a 250 ml sterile container and the volume of incubation medium subsequently made up to 100 ml. […] If more than 1 flask of cells were required, the cells from the individual flasks were combined before being dispensed into the 24-well plates.
Following the overnight incubation, the incubation medium was completely removed from the 24-well cell culture plates and replaced with 250 μl fresh DMEM (37° C.). […]

[5] = microsomal assay, PGE2 by EIA, read-out: COX-2: IC50

T1 sequence (P23219 24-599): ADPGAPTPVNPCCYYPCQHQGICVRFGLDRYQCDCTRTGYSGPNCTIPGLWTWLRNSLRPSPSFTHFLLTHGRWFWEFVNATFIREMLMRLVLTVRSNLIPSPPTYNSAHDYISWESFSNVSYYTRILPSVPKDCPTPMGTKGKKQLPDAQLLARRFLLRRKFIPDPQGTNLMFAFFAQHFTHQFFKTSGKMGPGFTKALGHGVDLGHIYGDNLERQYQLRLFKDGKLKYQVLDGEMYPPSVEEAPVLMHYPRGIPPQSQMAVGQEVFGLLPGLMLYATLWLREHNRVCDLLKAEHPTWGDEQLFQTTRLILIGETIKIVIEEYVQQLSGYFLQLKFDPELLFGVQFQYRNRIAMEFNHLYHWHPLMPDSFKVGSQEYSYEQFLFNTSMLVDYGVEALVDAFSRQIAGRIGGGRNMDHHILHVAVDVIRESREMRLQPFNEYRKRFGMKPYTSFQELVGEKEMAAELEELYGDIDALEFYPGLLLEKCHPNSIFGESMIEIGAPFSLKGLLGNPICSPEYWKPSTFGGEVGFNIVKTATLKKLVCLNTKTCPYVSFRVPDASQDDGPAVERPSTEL

In the case of `Fc1ccc([C@@H]2CCNC[C@H]2COc2ccc3c(c2)OCO3)cc1` (relative stereo) [PAROXETINE, trans-(−)-3-[(1,3-benzodioxol-5-yloxy)methyl]-4-(4-fluorophenyl)piperidine], the “MEAN Number of escapes” value ([1]; 7 days of treatment p.o., escapes out of 30 consecutive trials on day 8) is reported as 3.8 and the “reversal of chronic escape deficit” value ([1]; after 7 days of treatment, day 8) is reported as “lack of reversal of chronic inescapable shock”.

For `CS(=O)(=O)c1ccc(-c2c(-c3ccc(F)cc3)nn3nc(OC(F)F)ccc23)cc1` [2.1(v), 6-Difluoromethoxy-2-(4-fluoro-phenyl)-3-(4-methanesulfonyl-phenyl)-pyrazolo[1,5-b]pyridazine], the IC50 [2] was greater than 100 µM.

With `CS(=O)(=O)c1ccc(-c2c(-c3cccc(F)c3)nn3nc(OC(F)F)ccc23)cc1` [2.7(viii), 6-Difluoromethoxy-2-(3-fluoro-phenyl)-3-(4-methanesulfonyl-phenyl)-pyrazolo[1,5-b]pyridazine] the IC50 [2] was greater than 55.2 µM.

`CS(=O)(=O)c1ccc(-c2cc(C(F)(F)F)nc(Oc3cncc(Cl)c3)n2)cc1` [Example 1.7] showed an IC50 [3, 5] of less than 0.01 µM.

`Cc1ccc(Oc2nc(-c3ccc(S(C)(=O)=O)cc3)cc(C(F)(F)F)n2)cc1` [Example 1.6] showed an IC50 [3, 5] of less than 0.01 µM.

`CS(=O)(=O)c1ccc(-c2cc(C(F)(F)F)cc(OCc3ccccn3)n2)cc1` [Example 3.2, 2-[4-(methylsulfonyl)phenyl]-6-[(2-pyridinylmethyl)oxy]-4-(trifluoromethyl)pyridine] was tested, and the IC50 ([3]; stated in text after the microsomal assay table, read-out: IC50 values for inhibition of COX-2) was no more than 0.5 µM.

Molecule `CS(=O)(=O)c1ccc(-c2c(-c3ccc(OC(F)F)cc3)nn3ncccc23)cc1` [Compound 2.5, 2-(4-Difluoromethoxy-phenyl)-3-(4-methanesulfonyl-phenyl)-pyrazolo[1,5-b]pyridazine] has an IC50 [2] greater than 100 µM.

`CCOc1ccc(-c2nn3ncccc3c2-c2ccc(S(C)(=O)=O)cc2)cc1` [2.3(ii), 2-(4-Ethoxy-phenyl)-3-(4-methanesulfonyl-phenyl)-pyrazolol[5-b]pyridazine] showed an IC50 [2] greater than 100 µM.

With `COc1ccc(-c2nn3ncccc3c2-c2ccc(S(C)(=O)=O)cc2)cc1` [2.2(ii), 3-(4-Methanesulfonyl-phenyl)-2-(4-methoxy-phenyl)-pyrazolo[1,5-b]pyridazine] the IC50 [4] was less than 0.01 µM.
